In paper PMC7176092, “Development of the first in vivo GPR17 ligand through an iterative drug discovery pipeline: A novel disease-modifying strategy for multiple sclerosis” (PLoS ONE, 2020):
“And” between values parts separate entries of the source, which are not always exact repeats. Identical values can stand only once. Like-named read-outs stand apart in the source and are kept apart here. Each block holds one molecule with its values, some of them ahead of it.

What was measured:
[1] = biological target: T1, human GPR17 (Homo sapiens, UniProt Q13304); experiment: [35S]GTPγS binding assay; type: biochemical
T1 construct: HA; expressed in transfected cells
T1 sequence (Q13304 29-367): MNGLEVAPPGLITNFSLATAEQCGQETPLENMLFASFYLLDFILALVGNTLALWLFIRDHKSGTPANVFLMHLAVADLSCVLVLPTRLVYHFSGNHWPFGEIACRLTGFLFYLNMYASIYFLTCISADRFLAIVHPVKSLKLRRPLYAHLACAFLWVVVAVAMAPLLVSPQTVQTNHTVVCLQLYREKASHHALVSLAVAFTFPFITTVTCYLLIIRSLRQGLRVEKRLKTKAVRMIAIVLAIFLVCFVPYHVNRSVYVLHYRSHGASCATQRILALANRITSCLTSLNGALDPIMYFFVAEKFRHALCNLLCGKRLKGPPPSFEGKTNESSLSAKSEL
Description: [^35S]GTPγS binding assays were carried out as previously described. Briefly, control and astrocytoma 1321N1 cells stably transfected with human pcDNA3.1 (control cells) and human HA-tag GPR17 were homogenized in 5 mM Tris/HCl and 2 mM EDTA (pH 7.4) and centrifuged at 48,000g for 15 min at 4°C. The resulting pellets were washed in 50 mM Tris/HCl and 10 mM MgCl2 (pH 7.4). After protein dosage, aliquots of cell membranes were incubated with increasing concentrations of each investigated ligand (1 pM–10 μM) and GTPγS binding to activated G-proteins was quantified as previously described. Compounds were purchased from two external providers, i.e., Ambinter (Ambinter c/o Greenpharma, Orléans, France http://www.ambinter.com/) and Asinex (http://www.asinex.com/).
For analysis and graphic presentation of [^35S]GTPγS binding data, a nonlinear multipurpose curve fitting computer program (Graph-Pad Prism) was used. All data are presented as the mean ± SEM of three different experiments.
The selected 15 molecules were evaluated in our in-house [^35S]GTPγS functional assay in membranes from cells transfected with human GPR17. […] Moreover, this assay has been already successfully used in the past to measure the ability of both endogenous and novel synthetic compounds to activate GPR17 [25, 31]. All tested molecules were able to potently activate GPR17 with nanomolar/sub-nanomolar affinities. Concentration-response curves obtained for each selected compound are reported in S4 Fig.

[2] = In vivo mouse DMPK study, single 1 mg/kg subcutaneous dose
Description: In vivo DMPK studies were performed as an external service by Aptuit (Verona, Italy) according to standard procedures.
Two compounds were tested in a single dose pharmacokinetic (PK) study in mouse, in which a 1 mg/kg single dose solution (15% Ethanol, 85% PEG400) was administered by subcutaneous injection to naïve CD1 male mice from accredited supplier (n = 3), weighed prior to dosing. Blood samples were collected for 8 time-points (0.25, 0.50, 1, 2, 4, 6, 8, 24 hours).
Plasma samples were prepared and diluted according standard in-house procedures and stored at approximately -20°C, pending analysis. Briefly, blood samples were collected into tubes containing anticoagulant (K3EDTA), stored on ice and centrifuged to prepare plasma within 2 hours of collection. Plasma samples were diluted in Hepes Buffer and deproteinised using CH3CN containing rolipram as internal reference compound for positive ion mode, according standard procedure (20 ng/ml). After vortexing and centrifugation (3000 rpm per 10 min), sample supernatants were transferred in 96 well plate and diluted with water for analysis.
Blood concentrations of the tested compounds and their metabolites were detected through Liquid Chromatography-tandem Mass Spectrometry (QTRAP® 4000 LC-MS/MS System, Sciex). The results for each test compound in plasma were subjected to non-compartmental PK analysis using WinNonlin Phoenix v.6.3 for generation of appropriate PK parameters, reported along with graphical representation of the mean plasma concentration profiles over time.
At 24 hours, animals were sacrificed, and brains were collected and processed for measuring compound concentrations through mass spectrometry.

[3] = system: OPC-DRG co-cultures; experiment: In vitro myelination assay; type: cell-based, rat OPCs, mouse DRG; conditions: 10 nM; CTRL 100%; mean ± S.E.M.
Description: OPC-DRG co-cultures were prepared according to a previously described protocol.
DRG explants from E14.5 mice were directly put in culture after being plucked off from embryo spinal cords. Then, they were grown in Neurobasal medium (Life Technologies) in presence of 100 ng/ml nerve growth factor (NGF, Sigma-Aldrich), and in presence of 10 μM fluorodeoxyuridine (FUDR, Sigma-Aldrich) in order to remove all non-neuronal cells.
Purified primary rat OPCs were obtained from mixed glial cultures by orbital shaking for 3 hours. […]
At day 15, OPC/DRG co-cultures treated with either the selected compounds or the vehicle were fixed and treated with rat anti-MBP (Millipore), mouse anti-SMI 31 and mouse anti-SMI 32 (Cell Signaling), followed by the secondary goat anti-rat/-mouse antibody, conjugated to Alexa Fluor 555 or Alexa Fluor 488 (Life Technologies). The quantification of myelin segments was performed following a previously described protocol with ZEISS LSM Image Browser by acquiring 6 random fields of 4–5 coverslips for each experimental condition. […] The amount of myelin per axon (myelination index) was calculated as the ratio between the white pixels area and the green pixels area. […]

[4] = biological target: CCR8 (Homo sapiens, UniProt P51685); experiment: Cellular functional assay CCR8; conditions: reference agonist
Sequence of CCR8 (P51685 whole entry): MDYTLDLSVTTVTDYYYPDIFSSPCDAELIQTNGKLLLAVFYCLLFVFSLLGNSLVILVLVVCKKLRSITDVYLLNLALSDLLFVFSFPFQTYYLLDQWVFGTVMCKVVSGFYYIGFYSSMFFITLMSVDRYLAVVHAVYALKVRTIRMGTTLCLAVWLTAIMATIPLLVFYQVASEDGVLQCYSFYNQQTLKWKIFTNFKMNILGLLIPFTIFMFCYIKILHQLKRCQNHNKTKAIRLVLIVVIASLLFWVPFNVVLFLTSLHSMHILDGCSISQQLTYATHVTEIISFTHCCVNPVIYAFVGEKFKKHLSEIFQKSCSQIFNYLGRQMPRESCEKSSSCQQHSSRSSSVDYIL

[5] = biological target: T2, CCR4 (Homo sapiens, UniProt P51679); experiment: Cellular functional assay CCR4; conditions: reference agonist
T2 sequence (P51679 1-360): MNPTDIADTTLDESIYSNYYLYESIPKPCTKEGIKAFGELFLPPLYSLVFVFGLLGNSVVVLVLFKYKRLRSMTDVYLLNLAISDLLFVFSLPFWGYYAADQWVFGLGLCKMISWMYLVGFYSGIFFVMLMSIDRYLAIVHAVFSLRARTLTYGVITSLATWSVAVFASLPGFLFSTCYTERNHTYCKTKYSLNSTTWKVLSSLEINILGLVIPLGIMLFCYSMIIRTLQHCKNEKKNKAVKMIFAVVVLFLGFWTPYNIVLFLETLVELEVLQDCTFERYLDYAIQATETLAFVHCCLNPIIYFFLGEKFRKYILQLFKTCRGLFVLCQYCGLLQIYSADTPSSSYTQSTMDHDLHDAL

[6] = mouse, sc, plasma, 1 mg/kg s.c. single dose, CD1 male mice

EC50 ([1]; membranes of 1321N1 cells transfected with human GPR17, mean ± SEM of 3 experiments): 1.68 ± 0.1 nM
% Emax (ratio vs Emax of the standard) ([1]; standard LTC4 50 nM set to 100% (¶ compounds)): 104.6%
Emax (% vs basal) ([1]; vs basal, mean ± SEM): 147.5 ± 5.8%
Plasma concentration, individual mice ([2]; 0.50 h, 1 mg/kg s.c., 1 mg/kg): 29.4 ng/mL and 23.0 ng/mL
Plasma concentration, individual mice ([2]; 1.00 h, 1 mg/kg s.c., 1 mg/kg): 25.5 ng/mL and 30.8 ng/mL
Plasma concentration, individual mice ([2]; 2.00 h, 1 mg/kg s.c., 1 mg/kg): 6.2 ng/mL and 13.0 ng/mL and 13.3 ng/mL
Plasma concentration, individual mice ([2]; 4.00 h, 1 mg/kg s.c., 1 mg/kg): 0.7 ng/mL and 2.5 ng/mL and 1.5 ng/mL
concentration at 0.5 h ([2]; male, CD1, mouse, plasma, sc, 1 mg/kg, 0.50 h, 1 mg/kg s.c., n=3 mice, read-out: Plasma concentration, Mean): 23.3 ng/mL
concentration at 0.5 h ([2]; male, CD1, mouse, plasma, sc, 1 mg/kg, 0.50 h, 1 mg/kg s.c., read-out: Plasma concentration, individual mice): 17.4 ng/mL
concentration at 1 h ([2]; male, CD1, mouse, plasma, sc, 1 mg/kg, 1.00 h, 1 mg/kg s.c., n=3 mice, read-out: Plasma concentration, Mean): 25.7 ng/mL
concentration at 1 h ([2]; male, CD1, mouse, plasma, sc, 1 mg/kg, 1.00 h, 1 mg/kg s.c., read-out: Plasma concentration, individual mice): 20.7 ng/mL
concentration at 2 h ([2]; male, CD1, mouse, plasma, sc, 1 mg/kg, 2.00 h, 1 mg/kg s.c., n=3 mice): 10.8 ng/mL
concentration at 4 h ([2]; male, CD1, mouse, plasma, sc, 1 mg/kg, 4.00 h, 1 mg/kg s.c., read-out: Plasma concentration, Mean): 1.6 ng/mL
concentration at 6 h ([2]; male, CD1, mouse, plasma, sc, 1 mg/kg, 6.00 h, 1 mg/kg s.c., read-out: Plasma concentration, individual mice): 0.8 ng/mL
concentration at 4 h ([2]; male, CD1, mouse, plasma, sc, 1 mg/kg, plasma, 1 mg/kg s.c. single dose, CD1 male mice, read-out: Clast): 1 ng/mL
AUC(0-t) [2, 6]: 46.7 ng·h/mL
Cmax [2, 6]: 26.4 ng/mL
Tmax [2, 6]: 60 min
half-life [2, 6]: 45.5 min
Metabolites found in vivo ([2]; plasma after s.c. administration in mice): 5
Tlast ([2]; plasma, 1 mg/kg s.c. single dose, CD1 male mice): 4.00 h
Molecule: Cc1cccc(NC(=O)CN2C(=O)CC(c3ccccc3)=Nc3ccccc32)c1C [Compound 18]
Myelination Index [3]: 144.7 ± 14.28%

EC50 [4]: 0.72 nM
B1: I-309: chemokine, reference agonist for CCR8 (protein, UniProt P22362 24-96, looked up)
C-C motif chemokine 1: KSMQVPFSRCCFSFAEQEIPLRAILCYRNTSSICSNEGLIFKLKRGKEACALDTVGWVQRHRKMLRHCPSKRK

EC50 [5]: 0.34 nM
B2: TARC: chemokine, reference agonist for CCR4 (protein, UniProt Q92583 24-94, looked up)
C-C motif chemokine 17: ARGTNVGRECCLEYFKGAIPLRKLKTWYQTSEDCSRDAIVFVTVQGRAICSDPNNKRVKNAVKYLQSLERS
